The values that follow come from article PMC8123663, “Small-Molecule Inhibitors of the RNA M6A Demethylases FTO Potently Support the Survival of Dopamine Neurons” (International Journal of Molecular Sciences, 2021).

Data set [1] deals with T1, FTO protein (Homo sapiens, UniProt Q9C0B1). Description: FTO enzyme inhibition assay (demethylation of m6A RNA probe). The class given is biochemical. More on the design: 6His (C); purchased ProteoGenics SAS (ProteoGenix), Schiltigheim, France; host or cells: HEK293 (transient transfection). The conditions noted are these: for Inhibitory effect on FTO: up to the 100 µM concentration; for IC50: 10 nM FTO, 200 ng m6A RNA probe, 2 h at RT. The method, then:
The enzymatic assay was modified from Huang et al. The experiments were conducted in reaction buffer (50 mM Tris-HCl, pH 7.5, 300 μM 2OG, 280 μM (NH4)2Fe(SO4)2, and 2 mM L-ascorbic acid). The reaction mixture contained 200 ng methylated N^6-adenine RNA probe (SEQ ID NO: 1) (5′-CUUGUCAm6[…]-3′, Dharmacon, Lafayette, CO, USA) and 10 nM FTO protein and different concentrations of ligands (1 nM to 100 µM). Reactions were incubated on 96-well plate for 2 h at RT. After that, the amount of m^6A that was measured using EpiQuik m^6A RNA methylation Quantification Colorimetric Kit (Epigentek, Farmingdale, NY, USA).
The inhibitory effect IE of compounds on RNA probe demethylation by FTO was calculated as the enhancement of the m^6A amount as compared to the negative control (DMSO) relative to the difference between m^6A amounts of the positive control (max inhibition) and the negative control (Equation (2)) (2) IE=Cinh− CDMSO/Cinh(max)− CDMSO where Cinh, Cinh(max), and CDMSO are the amounts of m^6A at a given concentration of the inhibitor, maximum inhibition and in the case of DMSO, respectively.
Enzymatic assay curve-fitting analysis and determination of the IC50 and EC50 values were performed using AAT Bioquest, Inc. Quest Graph™ IC50 Calculator (v.1, Sunnyvale, CA, USA). MST data analysis was performed using MO.Affinity Analysis v2.3 software (NanoTemper Technologies GmbH, Munich, Germany). Statistical significance in cell survival experiments was assessed using one-way ANOVA and unpaired t-test with the GraphPad Prism8 software (GraphPad Software, Inc., 2365 Northside Dr., Suite 560, San Diego, CA, USA). Results were considered statistically significant at p values lower than 0.05.

Data set [2] concerns murine endothelial cells bEnd3 co-cultured with murine HIFko astrocytes. Briefly: Artificial in vitro blood-brain barrier model. The class given is in vitro ADME. The conditions noted are these: 10 µM in insert, 1 h; concentration in well ('brain') / concentration in insert. The source says:
The effects of FTO inhibitors were studied in the artificial in vitro BBB model, where murine endothelial cells bEnd3 were co-cultured with murine HIFko astrocytes on hanging cell culture inserts. The BBB penetration % defined as the ratio of the concentration of the compound in the well (‘brain’) side and the concentration in the insert, were 31.7 ± 3.3% for compound 2 and 30.8 ± 1.9% for compound 3.
Artificial in vitro blood–brain barrier (BBB) was established as described by Le Joncour et al. Murine endothelial cells bEnd3 (ATCC CRL-2299) were co-cultured with murine hypoxia-inducible factor knock out (HIFko) astrocytes (passage 12, received from Le Joncour) on hanging cell culture inserts (BD Falcon 353091, Franklin Lakes, NJ, USA) for five days in fetal bovine serum (FBS)-free conditions. 2.5 mL of FTO inhibitors (final concentration of 10 µM) were added into the insert (representing the ‘blood’ side) of the BBB cell. After 1 h incubation, 1 mL of the sample was taken from the insert and from the well (‘brain’ side), and the concentration of the compounds was measured by high-performance liquid chromatography (HPLC). […] The concentration of the studied compounds is each side of the BBB cell were analyzed using LC-MS system consisting of Agilent 1290 UHPLC (Agilent, Inc., Santa Clara, CA, USA) and Agilent 6460 Triple Quadrupole MS (Agilent, Inc., Santa Clara, CA 95051, USA). […]

The target of data set [3] is T1, FTO protein. Description: Protein binding by microscale thermophoresis (MST). The following applies: labelled FTO 20 nM, ligand 0–10 µM, 25 °C, pH 7.4. Further details: purchased ProteoGenics SAS (ProteoGenix), Schiltigheim, France; host or cells: HEK293 (transient transfection). How it is done: The microscale thermophoresis (MST) experiments were performed using Monolith NT.115 instrument (NanoTemper Technologies GmbH, Germany). Recombinant human FTO protein was labeled through His-tag using Monolith His-Tag Labeling Kit RED-tris-NTA (NanoTemper Technologies GmbH; MO-L008). The labelled FTO protein (target) was used at 20 nM in all the experiments and 10 µM starting concentrations of ligands FTO inhibitors 2 or 3 were used in both series of experiments.
The measurements were done in a buffer containing 10 mM Na-phosphate buffer, pH 7.4, 1 mM MgCl2, 3 mM KCl, 150 mM NaCl, 0.05% Tween-20 in premium coated capillaries (NanoTemper Technologies GmbH; MO-K025) using red LED source, power set at 100% and medium MST power at 25 °C. Each data point represents mean fraction bound values from n = 3 independent experiments per binding pair ±S.D, Kd values ± error estimations are indicated. Data analysis was performed using MO.Affinity Analysis v2.3 software.
A general note: In MST a laser heats a spot of the sample, and binding alters the fluorescence response.

Data set [4] deals with dopamine neurons. Briefly: 6-OHDA induced death of dopamine neurons. The class given is cell-based. The following applies: data not shown.
The subject of data set [5] is mouse midbrain dopamine neurons. Description: Survival of growth factor-deprived primary midbrain dopamine neurons. The following applies: for Neuroprotective effect at 10 nM / Neuroprotective effect at 100 nM / Neuroprotective effect at 1000 nM: growth factor deprivation; for Protection of embryonic midbrain dopamine neurons from growth factor deprivation-induced cell death: E13 mouse midbrain cultures, TH-positive cells, 10–1000 nM, five days; for Number of TH-positive neurons: three tested concentrations, growth factor deprivation model. Type of data set: cell-based. How it is done:
We, therefore, assessed the neuroprotective ability of different concentrations of FTO or ALKBH5 inhibitors in cultured growth factor deprived dopamine neurons. Human recombinant GDNF (100 ng/mL) or a condition without any neurotrophic compound added were used as positive and negative controls, respectively. Growth factor deprivation caused cell death by 50–70%. Representative images of mouse E13 wild-type midbrain cultures treated with vehicle, FTO or ALKBH5 inhibitors, and GDNF (positive control) probed with anti-TH antibody are shown on Figure 7B.
The midbrain floors were dissected from the ventral mesencephalic of 13 days old NMRI strain mouse embryos following the published procedure. The tissues were incubated with 0.5% trypsin (103139, MP Biomedicals, Inc, Thermo Fisher Scientific, Waltham, MA, USA) in HBSS (Ca^2+/Mg^2+-free) (14170112, Invitrogen, Thermo Fisher Scientific, Carlsbad, CA, USA) for 20 min at 37 °C, then mechanically dissociated. Cells were plated onto the 96-well plates coated with poly-L-ornithine (Sigma-Aldrich, Merck KGaA, St. Louis, MO, USA). Equal volumes of cell suspension were plated onto the center of the dish. The dopamine neurons were cultured for five DIV in presence of cell culture media Dulbecco’s MEM/Nut mix F12 (Invitrogen/Gibco; 21331–020), 100 × N2 serum supplement (Invitrogen/ Gibco; 17502–048), 33 mM D-Glucose (Sigma; G-8769), 0.5 mM L-Glutamine (Invitrogen/ Gibco; 25030–032), and 100 μg/mL Primocin (Invivo Gen, San Diego, CA, USA)]. On 6 DIV, to deprive growth factors, the cultures were washed three times with normal medium and the FTO and ALKBH5 inhibitors and glial cell line-derived neurotrophic factor (GDNF) were applied. The cells were grown for five days with different concentrations of FTO and ALKBH5 inhibitors. Human recombinant GDNF (100 ng/mL) (Icosagen AS, Tartu, Estonia) or a condition without any neurotrophic compound added were used as positive and negative controls, respectively.
After growing five days, the neuronal cultures were fixed and stained with anti-Tyrosine Hydroxylase antibody (MAB318, Millipore Bioscience Research Reagents, Temecula, CA, USA). Images were acquired by CellInsight (Thermo Fisher Scientific) high-content imaging equipment. Immunopositive neurons were counted by CellProfiler software and the data was analyzed by CellProfiler analyst software. The results are expressed as % of cell survival compared to GDNF-maintained neurons.

In data set [6] the test system is ALKBH5. Further details: method as in earlier work. The conditions noted are these: read-out: IC50 against ALKBH5; cited from earlier work.

Where “and” joins values, the source holds several entries; their conditions need not be identical. Identical values can stand only once. Entries after “also recorded” stand apart in the source; their conditions may differ.

T1 sequence (Q9C0B1 whole entry): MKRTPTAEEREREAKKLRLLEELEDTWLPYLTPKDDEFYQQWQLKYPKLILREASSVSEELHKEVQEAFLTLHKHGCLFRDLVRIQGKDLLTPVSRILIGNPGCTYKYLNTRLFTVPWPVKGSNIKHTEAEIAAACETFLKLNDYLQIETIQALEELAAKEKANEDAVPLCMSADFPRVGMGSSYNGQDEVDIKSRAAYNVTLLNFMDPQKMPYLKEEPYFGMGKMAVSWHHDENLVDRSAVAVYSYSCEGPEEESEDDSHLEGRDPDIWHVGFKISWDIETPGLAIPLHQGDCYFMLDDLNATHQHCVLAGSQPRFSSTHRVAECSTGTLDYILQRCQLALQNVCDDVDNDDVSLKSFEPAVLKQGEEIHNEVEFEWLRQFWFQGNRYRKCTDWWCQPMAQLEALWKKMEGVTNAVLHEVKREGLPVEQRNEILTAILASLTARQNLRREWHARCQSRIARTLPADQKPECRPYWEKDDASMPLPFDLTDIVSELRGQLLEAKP

Take “8-hydroxyquinoline-5-carboxylic acid [Compound 5]”: the “Inhibitory effect on FTO” value in data set [1] is “No significant inhibitory effect”.

Turning to `Nc1c(C(=O)O)cnc2ccccc12` [Compound 1, 4-aminoquinoline-3-carboxylic acid], the “Inhibitory effect on FTO” value in data set [1] is “No significant inhibitory effect”.

As for `Nc1c(C(=O)O)cnc2c(Cl)cccc12` [Compound 2, 4-amino-8-chloroquinoline-3-carboxylic acid], the BBB penetration % in data set [2] is 31.7% and 31.7 ± 3.3%. Moreover, the 50% inhibitory concentration (IC50) in data set [1] turned out to be 1460 nM. The compound also showed a Kd in data set [3] of 185 nM. For the same compound, the “Rescue of dopamine neurons from 6-OHDA induced neuronal cell death” value in data set [4] is given as “recued dopamine neurons”. Also, in data set [5], the “Neuroprotective effect at 10 nM” value is given as “neuroprotective effect can be seen”, the “Neuroprotective effect at 100 nM” value is “statistically significant outcome”, the “Neuroprotective effect at 1000 nM” value is on record as “statistically significant outcome” and the “Protection of embryonic midbrain dopamine neurons from growth factor deprivation-induced cell death” value (shortened to “Protection”) is “dose-dependently protected; also recorded: comparable to that of GDNF”.

Turning to `Nc1cccc2cc(C(=O)O)cnc12` [Compound 3, 8-aminoquinoline-3-carboxylic acid], the BBB penetration % in data set [2] is 30.8% and 30.8 ± 1.9%. The IC50 in data set [1] was determined as 28900 nM. This compound also gave a Kd in data set [3] of 337 nM. Besides, the “Rescue of dopamine neurons from 6-OHDA induced neuronal cell death” value in data set [4] is reported as “recued dopamine neurons”. In data set [5], the “Neuroprotective effect at 10 nM” value is “neuroprotective effect can be seen”, the “Neuroprotective effect at 100 nM” value was “statistically significant outcome”, the “Neuroprotective effect at 1000 nM” value is reported as “statistically significant outcome” and the “Protection” value is “dose-dependently protected; also recorded: comparable to that of GDNF”.

On to `Cc1cccc(C(=O)NNC(=O)/C=C/C(=O)O)c1` [Compound 4, (2E)-4-[(3-methylphenyl)formohydrazido]-4-oxobut-2-enoic acid], for which the “Inhibitory effect on FTO” value in data set [1] was “No significant inhibitory effect”.

`Cc1cccc(C(=O)NNC(=O)c2cccc(C)c2)c1` [Compound 6, 3-methyl-N’-(3-methylbenzoyl)benzohydrazide]: the “Inhibitory effect on FTO” value in data set [1] is reported as “No significant inhibitory effect”.

For the compound `O=C(O)CSC(O)C(=O)c1ccccc1` (stereo not drawn) [Compound 7, 2-[(1-hydroxy-2-oxo-2-phenylethyl)sulfanyl]acetic acid], the concentration for half-maximal inhibition (IC50) in data set [6] is 840 nM. Further, in data set [5], the “Protection” value is reported as “only trend” and the “Number of TH-positive neurons” value is listed as “increased”.

For the compound `O=C1CC(NCc2ccco2)C(=O)NN1` (stereo not drawn) [Compound 8, 4-{[(furan-2-yl)methyl]amino}-1,2-diazinane-3,6-dione], in data set [5], the “Neuroprotective effect at 10 nM” value was “rescued”, the “Neuroprotective effect at 100 nM” value is reported as “only a trend”, the “Neuroprotective effect at 1000 nM” value is on record as “rescued” and the “Number of TH-positive neurons” value is on record as “increased”.

A word on the IC50: it is the midpoint of a concentration-inhibition curve. What is called Kd is a measure of binding affinity in units of concentration. A low value points to higher affinity.
